Patent publication US11254663B2 (BRISTOL-MYERS SQUIBB COMPANY, priority 2019, dated 2022)

What follows are molecules tested against FXR (Homo sapiens (Human), UniProt Q96RI1) (assay: transient human FXR/Gal4-luciferase reporter assay). Settings: not given.
Chain of FXR (Q96RI1 262-486): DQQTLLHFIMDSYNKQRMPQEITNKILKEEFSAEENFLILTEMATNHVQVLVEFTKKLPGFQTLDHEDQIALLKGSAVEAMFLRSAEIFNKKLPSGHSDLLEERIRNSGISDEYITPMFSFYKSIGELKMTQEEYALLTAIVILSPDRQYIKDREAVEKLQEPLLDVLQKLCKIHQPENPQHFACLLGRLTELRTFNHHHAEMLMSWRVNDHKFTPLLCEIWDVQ
Format: cell-based
How it was run: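 Compound exposure ran overnight at 37 °C and activity was measured as luminescence with Steady-Glo reagent. The cells were a HEK293 line stably expressing firefly luciferase under five Gal4 response elements. They were transiently transfected, one night beforehand, with a plasmid encoding Gal4 DNA-binding domain fused to the human FXR ligand-binding domain.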
Cc1nc2ccc(-c3cccc(N(CC45CCC(c6nc(C7CC7)no6)(CC4)OC5)C(=O)C4CCC(F)(F)C4)c3)cc2s1 (stereo not drawn) [Example 567, N-((1-(3-cyclopropyl-1,2,4-oxadiazol-5-yl)-2-oxabicyclo[2.2.2]octan-4-yl)methyl)-3,3-difluoro-N-(3-(2-methylbenzo[d]thiazol-6-yl)phenyl)cyclopentane-1-carboxamide] was tested, and the EC50 was 432 nM. With CCc1cnc(-c2cccc(N(CC34CCC(c5ccc(C(F)(F)F)cn5)(CC3)CC4)C(=O)C34CC(F)(C3)C4)c2)nc1 [Example 496, N-(3-(5-ethylpyrimidin-2-yl)phenyl)-3-fluoro-N-((4-(5-(trifluoromethyl)pyridin-2-yl)bicyclo[2.2.2]octan-1-yl)methyl)bicyclo[1.1.1]pentane-1-carboxamide] the EC50 was 539 nM. O=C(N(CC12CCC(c3ccc(C(F)(F)F)cn3)(CC1)CC2)c1cccc(-c2cnc(C(F)(F)F)nc2)c1)C12CC(F)(C1)C2 [Example 491, 3-fluoro-N-((4-(5-(trifluoromethyl)pyridin-2-yl)bicyclo[2.2.2]octan-1-yl)methyl)-N-(3-(2-(trifluoromethyl)pyrimidin-5-yl)phenyl)bicyclo[1.1.1]pentane-1-carboxamide] was tested, and the EC50 was 1630 nM. For CC(C)(O)c1ccc(-c2cccc(N(CC34CCC(c5noc(C(C)(C)F)n5)(CC3)CC4)C(=O)N3CCN(CC(F)(F)F)CC3)c2)cc1 [Example 645], the EC50 was 229 nM.

Same assay, conditions: Gal4-hFXR fusion construct, HEK293 reporter cells; response relative to 8 μM GW-4064
For Cc1cn2cc(-c3cccc(N(CC45CCC(c6nc(C7CC7)no6)(CC4)CC5)C(=O)C45CC(F)(C4)C5)c3)c(C)cc2n1 [Example 320, N-((4-(3-cyclopropyl-1,2,4-oxadiazol-5-yl)bicyclo[2.2.2]octan-1-yl)methyl)-N-(3-(2,7-dimethylimidazo[1,2-a]pyridin-6-yl)phenyl)-3-fluorobicyclo[1.1.1]pentane-1-carboxamide], the EC50 was 493 nM. O=C(N(CC12CCC(c3nc(C4CC4)no3)(CC1)CC2)c1cccc(-c2ccc3c(c2)OC(F)(F)O3)c1)C12CC(F)(C1)C2 [Example 284, N-((4-(3-cyclopropyl-1,2,4-oxadiazol-5-yl)bicyclo[2.2.2]octan-1-yl)methyl)-N-(3-(2,2-difluorobenzo[d][1,3]dioxol-5-yl)phenyl)-3-fluorobicyclo[1.1.1]pentane-1-carboxamide] was tested, and the EC50 was 233 nM. Molecule CC(C)(F)c1nc(C23CCC(CN(C(=O)OC4CC(F)(F)C4)c4cc(-c5ccc(OC(F)F)cc5)c(F)cn4)(CC2)CC3)no1 [Example 630, 3,3-difluorocyclobutyl(4-(4-(difluoromethoxy)phenyl)-5-fluoropyridin-2-yl)((4-(5-(2-fluoropropan-2-yl)-1,2,4-oxadiazol-3-yl)bicyclo[2.2.2]octan-1-yl)methyl)carbamate] has an EC50 of 160 nM. With Cn1nc(C23CCC(CN(C(=O)C45CC(F)(C4)C5)c4cccc(-c5ccc(NS(C)(=O)=O)cc5)c4)(CC2)CC3)cc1C1CC1 [Example 406, N-((4-(5-cyclopropyl-1-methyl-1H-pyrazol-3-yl)bicyclo[2.2.2]octan-1-yl)methyl)-3-fluoro-N-(4′-(methylsulfonamido)-[1,1′-biphenyl]-3-yl)bicyclo[1.1.1]pentane-1-carboxamide] the EC50 was 203 nM. Molecule CC(C)(OC(=O)N(CC12CCC(c3noc(C4(F)CC4)n3)(CC1)CC2)c1cc(-c2ccc(OC(F)F)cc2)ccn1)C(F)(F)F [Example 624, 1,1,1-trifluoro-2-methylpropan-2-yl(4-(4-(difluoromethoxy)phenyl)pyridin-2-yl)((4-(5-(1-fluorocyclopropyl)-1,2,4-oxadiazol-3-yl)bicyclo[2.2.2]octan-1-yl)methyl)carbamate] has an EC50 of 50 nM. With CC(C)S(=O)(=O)Nc1ccc(-c2cccc(N(CC34CCC(c5nc(C6CC6)no5)(CC3)CC4)C(=O)C34CC(F)(C3)C4)c2)cc1 [Example 268, N-((4-(3-cyclopropyl-1,2,4-oxadiazol-5-yl)bicyclo[2.2.2]octan-1-yl)methyl)-3-fluoro-N-(4′-((1-methylethyl)sulfonamido)-[1,1′-biphenyl]-3-yl)bicyclo[1.1.1]pentane-1-carboxamide] the EC50 was 166 nM. With CC(C)(O)c1ccc(-c2cccc(N(CC34CCC(c5noc(C(C)(C)F)n5)(CC3)CC4)C(=O)[C@H]3C[C@](O)(C(F)(F)F)C3)c2)nn1 [Example 593, (cis)-N-((4-(5-(2-fluoropropan-2-yl)-1,2,4-oxadiazol-3-yl)bicyclo[2.2.2]octan-1-yl)methyl)-3-hydroxy-N-(3-(6-(2-hydroxypropan-2-yl)pyridazin-3-yl)phenyl)-3-(trifluoromethyl)cyclobutane-1-carboxamide] the EC50 was 566 nM. Work on COc1cc(-c2cccc(N(CC34CCC(c5nnc(C)s5)(CC3)CC4)C(=O)C34CC(F)(C3)C4)c2)ccn1 [Example 232, 3-Fluoro-N-(3-(2-methoxypyridin-4-yl)phenyl)-N-((4-(5-methyl-1,3,4-thiadiazol-2-yl)bicyclo[2.2.2]octan-1-yl)methyl)bicyclo[1.1.1]pentane-1-carboxamide] yielded an EC50 of 465 nM. Molecule CC(C)c1noc(C23CCC(CN(C(=O)C45CC(F)(C4)C5)c4cccc(-c5ccc(C(F)(F)F)nc5)c4)(CC2)CC3)n1 [Example 388, 3-fluoro-N-((4-(3-isopropyl-1,2,4-oxadiazol-5-yl)bicyclo[2.2.2]octan-1-yl)methyl)-N-(3-(6-(trifluoromethyl)pyridin-3-yl)phenyl)bicyclo[1.1.1]pentane-1-carboxamide] has an EC50 of 906 nM. CC(C)c1nc(C23CCC(CN(C(=O)C45CC(F)(C4)C5)c4cccc(-c5ccc(NS(C)(=O)=O)cc5)c4)(CC2)CC3)no1 [Example 430, 3-fluoro-N-((4-(5-isopropyl-1,2,4-oxadiazol-3-yl)bicyclo[2.2.2]octan-1-yl)methyl)-N-(4′-(methylsulfonamido)-[1,1′-biphenyl]-3-yl)bicyclo[1.1.1]pentane-1-carboxamide] was tested, and the EC50 was 40 nM. For O=C(N(CC12CCC(c3nc(C4CC4)no3)(CC1)CC2)c1cccc(-c2nccc(C(F)(F)F)n2)c1)C12CC(F)(C1)C2 [Example 291, N-((4-(3-cyclopropyl-1,2,4-oxadiazol-5-yl)bicyclo[2.2.2]octan-1-yl)methyl)-3-fluoro-N-(3-(4-(trifluoromethyl)pyrimidin-2-yl)phenyl)bicyclo[1.1.1]pentane-1-carboxamide], the EC50 was 439 nM. In the case of COc1ccc(-c2cccc(N(CC34CCC(c5cc(C6CC6)n(C)n5)(CC3)CC4)C(=O)C34CC(F)(C3)C4)c2)cc1 [Example 408, N-((4-(5-cyclopropyl-1-methyl-1H-pyrazol-3-yl)bicyclo[2.2.2]octan-1-yl)methyl)-3-fluoro-N-(4′-methoxy-[1,1′-biphenyl]-3-yl)bicyclo[1.1.1]pentane-1-carboxamide], the EC50 is reported as 160 nM. CC(C)(O)c1ccc(-c2cccc(N(CC34CCC(c5noc(C(C)(C)F)n5)(CC3)CC4)C(=O)NC3CCC(O)(C(F)(F)F)CC3)c2)cc1 (single isomer, unassigned) [Example 601, 1-((4-(5-(2-fluoropropan-2-yl)-1,2,4-oxadiazol-3-yl)bicyclo[2.2.2]octan-1-yl)methyl)-3-(4-hydroxy-4-(trifluoromethyl)cyclohexyl)-1-(4′-(2-hydroxypropan-2-yl)-[1,1′-biphenyl]-3-yl) urea] gave an EC50 of 246 nM. CC(F)(F)c1nc(C23CCC(CN(C(=O)C45CC(F)(C4)C5)c4cccc(C5CC5)c4)(CC2)CC3)no1 [Example 571, N-(3-cyclopropylphenyl)-N-((4-(5-(1,1-difluoroethyl)-1,2,4-oxadiazol-3-yl)bicyclo[2.2.2]octan-1-yl)methyl)-3-fluorobicyclo[1.1.1]pentane-1-carboxamide] showed an EC50 of 47 nM. Work on Cc1nc2ncc(-c3cccc(N(CC45CCC(c6nc(C(C)C)no6)(CC4)CC5)C(=O)C45CC(F)(C4)C5)c3)cc2s1 [Example 389, 3-fluoro-N-((4-(3-isopropyl-1,2,4-oxadiazol-5-yl)bicyclo[2.2.2]octan-1-yl)methyl)-N-(3-(2-methylthiazolo[4,5-b]pyridin-6-yl)phenyl)bicyclo[1.1.1]pentane-1-carboxamide] yielded an EC50 of 61 nM. In the case of Cc1nc2ccc(-c3cccc(N(CC45CCC(c6ccc(C#N)cc6)(CC4)OC5)C(=O)C45CC(F)(C4)C5)c3)cc2s1 [Example 568, N-((1-(4-Cyanophenyl)-2-oxabicyclo[2.2.2]octan-4-yl)methyl)-3-fluoro-N-(3-(2-methylbenzo[d]thiazol-6-yl)phenyl)bicyclo[1.1.1]pentane-1-carboxamide], the EC50 is reported as 2440 nM. With CC(C)(O)c1ccc(-c2ccnc(N(CC34CCC(c5ccc(C(C)(F)F)cn5)(CC3)CC4)C(=O)OC(C)(C)C(F)(F)F)c2)cc1 [Example 605, 1,1,1-trifluoro-2-methylpropan-2-yl((4-(5-(1,1-difluoroethyl)pyridin-2-1)bicyclo[2.2.2]octan-1-yl)methyl)(4-(4-(2-hydroxypropan-2-yl)phenyl)pyridin-2-yl)carbamate] the EC50 was 52 nM. In the case of O=C1Cc2cc(-c3cccc(N(CC45CCC(c6nc(C7CC7)no6)(CC4)CC5)C(=O)C45CC(F)(C4)C5)c3)ccc2N1 [Example 332, N-((4-(3-cyclopropyl-1,2,4-oxadiazol-5-yl)bicyclo[2.2.2]octan-1-yl)methyl)-3-fluoro-N-(3-(2-oxoindolin-5-yl)phenyl)bicyclo[1.1.1]pentane-1-carboxamide], the EC50 is reported as 158 nM. COc1cc(-c2cccc(N(CC34CCC(c5nc(C6CC6)no5)(CC3)OC4)C(=O)C34CC(F)(C3)C4)c2)ccn1 [Example 339, N-((1-(3-cyclopropyl-1,2,4-oxadiazol-5-yl)-2-oxabicyclo[2.2.2]octan-4-yl)methyl)-3-fluoro-N-(3-(2-methoxypyridin-4-yl)phenyl)bicyclo[1.1.1]pentane-1-carboxamide] was tested, and the EC50 was 378 nM. For CC(C)(O)C12CCC(c3ccnc(N(CC45CCC(c6nc(C7CC7)no6)(CC4)CC5)C(=O)OC(C)(C)C(F)(F)F)n3)(CC1)CC2 [Example 666, 1,1,1-trifluoro-2-methylpropan-2-yl ((4-(3-cyclopropyl-1,2,4-oxadiazol-5-yl)bicyclo[2.2.2]octan-1-yl)methyl)(4-(4-(2-hydroxypropan-2-yl)bicyclo[2.2.2]octan-1-yl)pyrimidin-2-yl)carbamate], the EC50 was 496 nM.
